From ChEMBL document CHEMBL1201862, “PubChem BioAssay data set” (2004)
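Briefly, cells in 96-well plates were exposed to five compound concentrations for 48 h, and endpoints were estimated by linear interpolation. GI50 = concentration required for 50% inhibition of growth.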 Active and inactive are the calls of the source. Rule as the data show it: active = GI50 up to about 1.1 µM and inactive = higher.

Assays:
Experiment in all cases: DTP human tumour cell line panel, 48 h
[1] = tested on: CCRF-CEM
[2] = tested on: UACC-62
[3] = tested on: MCF7
[4] = tested on: OVCAR-4
[5] = tested on: SF-295
[6] = tested on: SNB-19
[7] = tested on: M14
[8] = tested on: SNB-75
[9] = tested on: SF-539
[10] = tested on: ACHN
[11] = tested on: HCT-15
[12] = tested on: TK-10
[13] = tested on: SF-268
[14] = tested on: SK-MEL-2
[15] = tested on: SK-MEL-28
[16] = tested on: MDA-MB-435
[17] = tested on: NCI-H226
[18] = tested on: PC-3
[19] = tested on: HT-29
[20] = tested on: BT-549
[21] = tested on: 786-0
[22] = tested on: HL-60
[23] = tested on: K562
[24] = tested on: OVCAR-8
[25] = tested on: EKVX
[26] = tested on: SR
[27] = tested on: Hs-578T
[28] = tested on: MOLT-4
[29] = tested on: NCI-H460
[30] = tested on: RPMI-8226
[31] = tested on: T47D
[32] = tested on: HCC 2998
[33] = tested on: SW-620
[34] = tested on: UACC-257
[35] = tested on: UO-31
[36] = tested on: A549
[37] = tested on: NCI/ADR-RES
[38] = tested on: A498
[39] = tested on: LOX IMVI
[40] = tested on: NCI-H23
[41] = tested on: HOP-92
[42] = tested on: NCI-H522
[43] = tested on: KM12
[44] = tested on: RXF 393
[45] = tested on: SK-OV-3
[46] = tested on: MDA-MB-231
[47] = tested on: SK-MEL-5
[48] = tested on: IGROV-1
[49] = tested on: HOP-62
[50] = tested on: MDA-N
[51] = tested on: HCT-116
[52] = tested on: OVCAR-5
[53] = tested on: U-251
[54] = tested on: SN12C
[55] = tested on: OVCAR-3
[56] = tested on: CAKI-1
[57] = tested on: Malme-3M
[58] = tested on: DU-145
[59] = tested on: COLO 205

Measured: GI50

COC(=O)C(/C(=N/N)C(=O)Nc1cccc(O)c1)c1nc2ccccc2nc1O (centres undefined)
> 100 µM: [11]
inactive: [1] > 10 µM | [2] > 100 µM | [3] > 100 µM | [4] > 100 µM | [5] > 100 µM | [6] > 100 µM | [7] > 100 µM | [8] > 100 µM | [9] > 100 µM | [10] > 100 µM | [12] > 100 µM | [13] > 100 µM | [14] > 100 µM | [15] > 100 µM | [16] > 100 µM | [17] > 100 µM | [18] > 100 µM | [19] > 100 µM | [20] > 100 µM | [21] > 100 µM | [22] > 100 µM | [23] > 100 µM | [24] > 100 µM | [25] > 100 µM | [26] > 100 µM | [27] > 100 µM | [28] > 100 µM | [29] > 100 µM | [30] > 10 µM | [31] > 100 µM | [32] > 100 µM | [33] > 100 µM | [34] > 100 µM | [35] > 100 µM | [36] > 100 µM | [37] > 100 µM | [38] > 100 µM | [39] > 100 µM | [40] > 100 µM | [41] > 100 µM | [42] > 100 µM | [43] > 100 µM | [44] > 100 µM | [45] > 100 µM | [46] > 100 µM | [47] > 100 µM | [48] > 100 µM | [49] > 100 µM | [50] > 100 µM | [51] > 100 µM | [52] > 100 µM | [53] > 100 µM | [54] > 100 µM | [55] > 100 µM | [56] > 100 µM

CN1CCCCCC(=N\O)/C(=N/O)CCCCC1
inactive: [1] > 100 µM | [3] > 100 µM | [5] > 100 µM | [6] > 100 µM | [7] > 100 µM | [8] > 100 µM | [9] > 100 µM | [10] > 100 µM | [12] > 100 µM | [13] > 100 µM | [15] > 100 µM | [16] > 100 µM | [17] > 100 µM | [18] > 100 µM | [19] > 100 µM | [20] 80.7 µM | [21] > 100 µM | [22] > 100 µM | [23] > 100 µM | [24] > 100 µM | [57] > 100 µM | [25] > 100 µM | [26] > 100 µM | [58] > 100 µM | [27] > 100 µM | [28] > 100 µM | [29] > 100 µM | [33] > 100 µM | [34] > 100 µM | [35] > 100 µM | [36] > 100 µM | [37] > 100 µM | [38] > 100 µM | [39] > 100 µM | [40] > 100 µM | [41] > 100 µM | [42] > 100 µM | [43] > 100 µM | [44] > 100 µM | [46] > 100 µM | [47] > 100 µM | [48] > 100 µM | [49] > 100 µM | [50] > 100 µM | [51] > 100 µM | [52] > 100 µM | [53] > 100 µM | [54] > 100 µM | [55] > 100 µM | [56] > 100 µM
> 100 µM: [11]

Nc1ccc2c(c1)C(=O)c1ccccc1-2
95.5 µM: [11]
inactive: [1] 71.6 µM | [2] > 100 µM | [3] > 100 µM | [4] > 100 µM | [5] > 100 µM | [6] > 100 µM | [7] 57.4 µM | [8] > 100 µM | [9] > 100 µM | [10] 72.9 µM | [12] > 100 µM | [13] > 100 µM | [14] > 100 µM | [15] > 100 µM | [16] > 100 µM | [17] > 100 µM | [18] > 100 µM | [19] > 100 µM | [20] 34 µM | [21] > 100 µM | [22] 30.2 µM | [23] 51.6 µM | [24] 54.8 µM | [57] > 100 µM | [25] 89.7 µM | [26] 23.6 µM | [58] > 100 µM | [27] > 100 µM | [28] 15.7 µM | [29] > 100 µM | [30] > 100 µM | [31] 61.8 µM | [32] 93.3 µM | [33] 68.1 µM | [34] > 100 µM | [35] 68.2 µM | [36] > 100 µM | [37] > 100 µM | [38] 49 µM | [39] 73.1 µM | [40] > 100 µM | [41] 28.6 µM | [42] > 100 µM | [43] 62.5 µM | [44] > 100 µM | [46] > 100 µM | [47] > 100 µM | [48] > 100 µM | [49] > 100 µM | [59] 91.4 µM | [51] > 100 µM | [52] > 100 µM | [53] > 100 µM | [54] > 100 µM | [55] 55.7 µM | [56] 56.5 µM

CCc1nc(N)nc(N)c1-c1ccc(Cl)c([N+]#N)c1
inactive: [2] 41 µM | [3] > 100 µM | [4] > 100 µM | [5] 39 µM | [6] > 100 µM | [7] 65.5 µM | [8] > 100 µM | [9] 44.3 µM | [10] 39.4 µM | [12] > 100 µM | [13] > 100 µM | [14] > 100 µM | [15] > 100 µM | [16] 38.7 µM | [17] > 100 µM | [18] 61.7 µM | [19] 33.3 µM | [20] > 100 µM | [21] 48.2 µM | [22] 40.8 µM | [23] 6.32 µM | [24] 66.8 µM | [57] > 100 µM | [25] > 100 µM | [26] 22.9 µM | [58] 80.2 µM | [27] 46.6 µM | [28] 23.1 µM | [29] 37.8 µM | [31] > 100 µM | [33] 36.5 µM | [34] > 100 µM | [35] 78.3 µM | [36] 20.6 µM | [37] 49.8 µM | [39] 46.5 µM | [40] 28.5 µM | [41] > 100 µM | [42] 38.7 µM | [43] 38.1 µM | [44] > 100 µM | [45] > 100 µM | [46] > 100 µM | [47] 46.2 µM | [48] 6.58 µM | [49] 82 µM | [59] 56 µM | [51] 41.8 µM | [52] > 100 µM | [53] 64.3 µM | [54] 50.6 µM | [55] 44.5 µM | [56] 58.3 µM
28.8 µM: [11]
active: [30] 0.564 µM
